Legend:
Assay type in all cases: in vivo
Veronica persica (VERPE) [1] = assay: B. Herbicidal post-emergence efficacy, VERPE
Procedure, shortened: (§1)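 Post-emergence foliar spray, at application rates of 1280 g/ha or less, on one-leaf-stage plants 2–3 weeks post-sowing, using aqueous WP or EC suspensions with 0.5% additive at 600 L/ha. Visual percent efficacy relative to untreated plants scored roughly 3 weeks later in the greenhouse.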

Setaria viridis (SETVI) [2] = assay: A. Herbicidal pre-emergence efficacy, SETVI
Procedure, shortened: (§2)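 Pre-emergence soil-surface spray in sandy loam pots, WP/EC in water plus 0.5% additive, 600 L/ha. Visual % damage rating after about 3 weeks in greenhouse vs. untreated; 0% = control-like, 100% = dead plants. Rates up to 1280 g/ha.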

Kochia scoparia (KCHSC) [3] = assay: B. Herbicidal post-emergence efficacy, KCHSC; details: for Post-emergence efficacy against KCHSC: 1280 g/ha
Procedure, shortened: as §1

Poa annua (POAAN) [4] = assay: A. Herbicidal pre-emergence efficacy, POAAN
Procedure, shortened: as §2

[5] = test system: Abutilon theophrasti (ABUTH); assay: A. Herbicidal pre-emergence efficacy, ABUTH; details: scored visually after about 3 weeks vs untreated controls
Procedure, shortened: as §2

[6] = test system: Matricaria inodora (MATIN); assay: A. Herbicidal pre-emergence efficacy, MATIN; details: pre-emergence, dosage 1280 g/ha
Procedure, shortened: as §2

[7] = test system: Amaranthus retroflexus (AMARE); assay: B. Herbicidal post-emergence efficacy, AMARE
Procedure, shortened: as §1

[8] = test system: Alopecurus myosuroides (ALOMY); assay: A. Herbicidal pre-emergence efficacy, ALOMY; details: 1280 g/ha; scored visually after about 3 weeks vs untreated controls
Description: Seeds of mono- and dicotyledonous weed plants were placed in plastic pots in sandy loam soil (doubly sown with one species each of mono- or dicotyledonous weed plants per pot) and covered with soil. The compounds of the invention, formulated in the form of wettable powders (WP) or as emulsion concentrates (EC), were then applied onto the surface of the covering soil as aqueous suspension or emulsion with addition of 0.5% additive at a water application rate of 600 liters per hectare (converted). After the treatment, the pots were placed in a greenhouse and kept under good growth conditions for the test plants. After about 3 weeks, the efficacy of the preparations was scored visually in comparison with untreated controls as percentages.
For example, • 100% efficacy=plants have died, • 0% efficacy=like untreated control plants.
Tables A1a to A12c below show the effects of selected compounds of the general formula (I) according to table 1 on various harmful plants at an application rate corresponding to 1280 g/ha or less, which were obtained by the experimental procedure mentioned above.

Stellaria media (STEME) [9] = assay: A. Herbicidal pre-emergence efficacy, STEME
Procedure, shortened: as §2

[10] = test system: Digitaria sanguinalis (DIGSA); assay: A. Herbicidal pre-emergence efficacy, DIGSA; details: scored visually after about 3 weeks vs untreated controls
Procedure, shortened: as §2

Veronica persica (VERPE) [11] = assay: A. Herbicidal pre-emergence efficacy, VERPE
Procedure, shortened: as §2

[12] = test system: Abutilon theophrasti (ABUTH); assay: B. Herbicidal post-emergence efficacy, ABUTH; details: rated visually after about 3 weeks
Procedure, shortened: as §1

[13] = test system: Echinochloa crus-galli (ECHCG); assay: B. Herbicidal post-emergence efficacy, ECHCG; details: rated visually after about 3 weeks
Procedure, shortened: as §1

[14] = test system: Amaranthus retroflexus (AMARE); assay: A. Herbicidal pre-emergence efficacy, AMARE
Procedure, shortened: as §2

Stellaria media (STEME) [15] = assay: B. Herbicidal post-emergence efficacy, STEME
Procedure, shortened: as §1

[16] = test system: Echinochloa crus-galli (ECHCG); assay: A. Herbicidal pre-emergence efficacy, ECHCG; details: scored visually after about 3 weeks vs untreated controls
Procedure, shortened: as §2

Lolium rigidum (LOLRI) = assay: A. Herbicidal pre-emergence efficacy, LOLRI
Procedure, shortened: as §2

Kochia scoparia (KCHSC) [17] = assay: A. Herbicidal pre-emergence efficacy, KCHSC; details: pre-emergence
Procedure, shortened: as §2

Poa annua (POAAN) [18] = assay: B. Herbicidal post-emergence efficacy, POAAN
Procedure, shortened: as §1

Setaria viridis (SETVI) [19] = assay: B. Herbicidal post-emergence efficacy, SETVI
Experimental: Seeds of mono- and dicotyledonous weed plants were placed in plastic pots in sandy loam soil (doubly sown with in each case one species of mono- or dicotyledonous weed plants per pot), covered with soil and cultivated in a greenhouse under controlled growth conditions. 2 to 3 weeks after sowing, the test plants were treated at the one-leaf stage. The compounds of the invention, formulated in the form of wettable powders (WP) or as emulsion concentrates (EC), were applied onto the green parts of the plants as aqueous suspension or emulsion with addition of 0.5% additive at a water application rate of 600 liters per hectare (converted). After the test plants had been kept in the greenhouse under optimum growth conditions for about 3 weeks, the activity of the preparations was rated visually in comparison to untreated controls.
For example, • 100% efficacy=plants have died, • 0% efficacy=like untreated control plants
Tables B1a to B12c below show the effects of selected inventive compounds of the general formula (I) according to table 1 on various harmful plants at an application rate corresponding to 1280 g/ha or less, which were obtained by the experimental procedure mentioned above.

[20] = test system: Digitaria sanguinalis (DIGSA); assay: B. Herbicidal post-emergence efficacy, DIGSA; details: 1280 g/ha, rated visually after about 3 weeks
Procedure, shortened: as §1

## Cc1cccc(Oc2ncc(Br)cn2)c1OS(=O)(=O)CCCC(F)(F)F [Example I-35]
Veronica persica (VERPE) [1]; 80 g/ha
  Post-emergence efficacy against VERPE: 90%
Veronica persica (VERPE) [1]; 320 g/ha
  Post-emergence efficacy against VERPE: 90%
Veronica persica (VERPE) [1]; 1280 g/ha
  Post-emergence efficacy against VERPE: 100%
Setaria viridis (SETVI) [2]; dosage 320 g/ha
  Pre-emergence efficacy against SETVI: 100%
Setaria viridis (SETVI) [2]; dosage 1280 g/ha
  Pre-emergence efficacy against SETVI: 100%
Kochia scoparia (KCHSC) [3]
  Post-emergence efficacy against KCHSC: 100%
Poa annua (POAAN) [4]; dosage 320 g/ha
  Pre-emergence efficacy against POAAN: 100%
Poa annua (POAAN) [4]; dosage 1280 g/ha
  Pre-emergence efficacy against POAAN: 100%
[5]; 1280 g/ha
  Pre-emergence efficacy against ABUTH: 100%
[6]
  Pre-emergence efficacy against MATIN: 100%
[7]; 320 g/ha
  Post-emergence efficacy against AMARE: 90%
[7]; 1280 g/ha
  Post-emergence efficacy against AMARE: 100%
[8]
  Pre-emergence efficacy against ALOMY: 90%
Stellaria media (STEME) [9]; dosage 1280 g/ha
  Pre-emergence efficacy against STEME: 100%
[10]; 320 g/ha
  Pre-emergence efficacy against DIGSA: 90%
[10]; 1280 g/ha
  Pre-emergence efficacy against DIGSA: 100%
Veronica persica (VERPE) [11]; 320 g/ha
  Pre-emergence efficacy against VERPE in %: 90%
Veronica persica (VERPE) [11]; 1280 g/ha
  Pre-emergence efficacy against VERPE in %: 100%
[12]; 320 g/ha
  Post-emergence efficacy against ABUTH in %: 100%
[12]; 1280 g/ha
  Post-emergence efficacy against ABUTH in %: 100%
[13]; 1280 g/ha
  Post-emergence efficacy against ECHCG in %: 90%
[14]; 320 g/ha
  Pre-emergence efficacy against AMARE in %: 90%
[14]; 1280 g/ha
  Pre-emergence efficacy against AMARE in %: 100%
Stellaria media (STEME) [15]; 80 g/ha
  Post-emergence efficacy against STEME: 90%
Stellaria media (STEME) [15]; 320 g/ha
  Post-emergence efficacy against STEME: 100%
Stellaria media (STEME) [15]; 1280 g/ha
  Post-emergence efficacy against STEME: 100%
[16]; 1280 g/ha
  Pre-emergence efficacy against ECHCG: 100%
Lolium rigidum (LOLRI); dosage 1280 g/ha
  Pre-emergence efficacy against LOLRI: 100%
Kochia scoparia (KCHSC) [17]; dosage 1280 g/ha
  Pre-emergence efficacy against KCHSC: 90%
Poa annua (POAAN) [18]; 1280 g/ha
  Post-emergence efficacy against POAAN: 90%

## Cc1cccc(Oc2ncc(Cl)cn2)c1OS(=O)(=O)CCCC(F)(F)F [Example I-28, 2-[(5-Chloropyrimidin-2-yl)oxy]-6-methylphenyl 4,4,4-trifluorobutane-1-sulfonate]
Veronica persica (VERPE) [1]; 80 g/ha
  Post-emergence efficacy against VERPE: 100%
Veronica persica (VERPE) [1]; 320 g/ha
  Post-emergence efficacy against VERPE: 100%
Veronica persica (VERPE) [1]; 1280 g/ha
  Post-emergence efficacy against VERPE: 100%
Setaria viridis (SETVI) [2]; dosage 80 g/ha
  Pre-emergence efficacy against SETVI: 100%
Setaria viridis (SETVI) [2]; dosage 320 g/ha
  Pre-emergence efficacy against SETVI: 100%
Setaria viridis (SETVI) [2]; dosage 1280 g/ha
  Pre-emergence efficacy against SETVI: 100%
Kochia scoparia (KCHSC) [3]; 320 g/ha, rated visually after about 3 weeks
  Post-emergence efficacy against KCHSC in %: 90%
Kochia scoparia (KCHSC) [3]
  Post-emergence efficacy against KCHSC: 100%
Poa annua (POAAN) [4]; dosage 80 g/ha
  Pre-emergence efficacy against POAAN: 90%
Poa annua (POAAN) [4]; dosage 320 g/ha
  Pre-emergence efficacy against POAAN: 100%
Poa annua (POAAN) [4]; dosage 1280 g/ha
  Pre-emergence efficacy against POAAN: 100%
[5]; 80 g/ha
  Pre-emergence efficacy against ABUTH: 100%
[5]; 320 g/ha
  Pre-emergence efficacy against ABUTH: 100%
[5]; 1280 g/ha
  Pre-emergence efficacy against ABUTH: 100%
[6]
  Pre-emergence efficacy against MATIN: 100%
[7]; 320 g/ha
  Post-emergence efficacy against AMARE: 90%
[7]; 1280 g/ha
  Post-emergence efficacy against AMARE: 100%
Setaria viridis (SETVI) [19]; 320 g/ha
  Post-emergence efficacy against SETVI: 90%
Setaria viridis (SETVI) [19]; 1280 g/ha
  Post-emergence efficacy against SETVI: 90%
[8]
  Pre-emergence efficacy against ALOMY: 100%
[20]
  Post-emergence efficacy against DIGSA in %: 90%
Stellaria media (STEME) [9]; dosage 80 g/ha
  Pre-emergence efficacy against STEME: 90%
Stellaria media (STEME) [9]; dosage 320 g/ha
  Pre-emergence efficacy against STEME: 100%
Stellaria media (STEME) [9]; dosage 1280 g/ha
  Pre-emergence efficacy against STEME: 100%
[10]; 80 g/ha
  Pre-emergence efficacy against DIGSA: 90%
[10]; 320 g/ha
  Pre-emergence efficacy against DIGSA: 100%
[10]; 1280 g/ha
  Pre-emergence efficacy against DIGSA: 100%
Veronica persica (VERPE) [11]; 320 g/ha
  Pre-emergence efficacy against VERPE in %: 100%
Veronica persica (VERPE) [11]; 1280 g/ha
  Pre-emergence efficacy against VERPE in %: 100%
[12]; 320 g/ha
  Post-emergence efficacy against ABUTH in %: 100%
[12]; 1280 g/ha
  Post-emergence efficacy against ABUTH in %: 100%
[13]; 320 g/ha
  Post-emergence efficacy against ECHCG in %: 90%
[13]; 1280 g/ha
  Post-emergence efficacy against ECHCG in %: 100%
[14]; 80 g/ha
  Pre-emergence efficacy against AMARE in %: 100%
[14]; 320 g/ha
  Pre-emergence efficacy against AMARE in %: 100%
[14]; 1280 g/ha
  Pre-emergence efficacy against AMARE in %: 100%
Stellaria media (STEME) [15]; 80 g/ha
  Post-emergence efficacy against STEME: 90%
Stellaria media (STEME) [15]; 320 g/ha
  Post-emergence efficacy against STEME: 100%
Stellaria media (STEME) [15]; 1280 g/ha
  Post-emergence efficacy against STEME: 100%
[16]; 80 g/ha
  Pre-emergence efficacy against ECHCG: 90%
[16]; 320 g/ha
  Pre-emergence efficacy against ECHCG: 100%
[16]; 1280 g/ha
  Pre-emergence efficacy against ECHCG: 100%
Lolium rigidum (LOLRI); dosage 320 g/ha
  Pre-emergence efficacy against LOLRI: 90%
Lolium rigidum (LOLRI); dosage 1280 g/ha
  Pre-emergence efficacy against LOLRI: 100%
Kochia scoparia (KCHSC) [17]; dosage 320 g/ha
  Pre-emergence efficacy against KCHSC: 90%
Kochia scoparia (KCHSC) [17]; dosage 1280 g/ha
  Pre-emergence efficacy against KCHSC: 90%
Poa annua (POAAN) [18]; 320 g/ha
  Post-emergence efficacy against POAAN: 90%
Poa annua (POAAN) [18]; 1280 g/ha
  Post-emergence efficacy against POAAN: 100%

Reference: patent US20240174618A1, “SUBSTITUTED (2-HETEROARYLOXYPHENYL)SULFONATES, SALTS THEREOF AND THEIR USE AS HERBICIDAL AGENTS” (Bayer Aktiengesellschaft, priority 2021, published 2024)
